Reference: patent US4126616A, “N-propylnorapomorphine diesters” (Hinshaw; William B., priority 1976, dated 1978)
Read-outs that look alike come from different tables or passages of the source.

Test system: caudate lesioned mouse
Test: caudate lesioned mouse test (anti-parkinson activity)
Format: in vivo
Conditions: for responders at 52 µmol/kg / responders at 132 µmol/kg / ED50 / responders at 26 µmol/kg / responders at 104 µmol/kg / responders at 208 µmol/kg / responders at 416 µmol/kg: Mus musculus; for responders at 132 µmol/kg: dose 0.132 m. mole/kg; for ED50: caudate lesioned mouse
In short: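 Mice with unilateral caudate lesions, recovered ≥14 days, kept only if circling toward lesion in all three periods after apomorphine 1.7 mg/kg i.p. Test drugs given in 1% gum tragacanth; doses as mg/kg free base.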

[1] = 0.5 h, read-out: No. Mice Affected/No. Mice Tested, 1/2 h
[2] = 1 h, read-out: No. Mice Affected/No. Mice Tested, 1 h
[3] = 2 h, read-out: No. Mice Affected/No. Mice Tested, 2 h
[4] = 4 h, read-out: No. Mice Affected/No. Mice Tested, 4 h
[5] = 6 h, read-out: No. Mice Affected/No. Mice Tested, 6 h
[6] = 24 h, read-out: No. Mice Affected/No. Mice Tested, 24 h
[7] = read-out: No. Mice Affected/No. Mice Tested, Total
[8] = 0.5 h, dose 0.208 m. mole/kg, 1/2 h post-drug, read-out: No. Mice Affected/No. Mice Tested, 1/2 h (converted)
[9] = 0.5 h, dose 0.416 m. mole/kg, 1/2 h post-drug, read-out: No. Mice Affected/No. Mice Tested, 1/2 h (converted)
[10] = dose 0.208 m. mole/kg, 1 h post-drug, read-out: No. Mice Affected/No. Mice Tested, 1 h
[11] = dose 0.208 m. mole/kg, 4 h post-drug, read-out: No. Mice Affected/No. Mice Tested, 4 h (converted)
[12] = dose 0.208 m. mole/kg, 6 h post-drug, read-out: No. Mice Affected/No. Mice Tested, 6 h (converted)
[13] = dose 0.208 m. mole/kg, 24 h post-drug, read-out: No. Mice Affected/No. Mice Tested, 24 h (converted)
[14] = dose 0.208 m. mole/kg, total, read-out: No. Mice Affected/No. Mice Tested, Total (converted)
[15] = dose 0.416 m. mole/kg, 1 h post-drug, read-out: No. Mice Affected/No. Mice Tested, 1 h (converted)
[16] = dose 0.416 m. mole/kg, 4 h post-drug, read-out: No. Mice Affected/No. Mice Tested, 4 h (converted)
[17] = dose 0.416 m. mole/kg, 6 h post-drug, read-out: No. Mice Affected/No. Mice Tested, 6 h (converted)
[18] = dose 0.416 m. mole/kg, 24 h post-drug, read-out: No. Mice Affected/No. Mice Tested, 24 h
[19] = dose 0.416 m. mole/kg, total, read-out: No. Mice Affected/No. Mice Tested, Total (converted)

`CCCCCCCCCCCCCCCC(=O)Oc1ccc2c(c1OC(=O)CCCCCCCCCCCCCCC)-c1cccc3c1C(C2)N(CCC)CC3` (centres unmarked) [Ex. ID, N-Propylnorapomorphine dihexadecanoate] gave a responders at 52 µmol/kg (0.5 h, dose 0.052 m. mole/kg, 1/2 h post-drug, read-out: No. Mice Affected/No. Mice Tested, 1/2 h (converted)) of 0%, a responders at 132 µmol/kg (0.5 h, 1/2 h post-drug, read-out: No. Mice Affected/No. Mice Tested, 1/2 h (converted)) of 0% and a responders at 52 µmol/kg (dose 0.052 m. mole/kg, 1 h post-drug, read-out: No. Mice Affected/No. Mice Tested, 1 h (converted)) of 0%. The responders at 52 µmol/kg (dose 0.052 m. mole/kg, 4 h post-drug, read-out: No. Mice Affected/No. Mice Tested, 4 h (converted)) was 25%, the responders at 52 µmol/kg (dose 0.052 m. mole/kg, 6 h post-drug, read-out: No. Mice Affected/No. Mice Tested, 6 h (converted)) was 25% and the responders at 52 µmol/kg (dose 0.052 m. mole/kg, 24 h post-drug, read-out: No. Mice Affected/No. Mice Tested, 24 h) was 0%. For the same molecule, the responders at 52 µmol/kg (dose 0.052 m. mole/kg, total, read-out: No. Mice Affected/No. Mice Tested, Total (converted)) was 25%, the responders at 132 µmol/kg (1 h post-drug, read-out: No. Mice Affected/No. Mice Tested, 1 h (converted)) was 0% and the responders at 132 µmol/kg (4 h post-drug, read-out: No. Mice Affected/No. Mice Tested, 4 h (converted)) was 100%. It also gave a responders at 132 µmol/kg (6 h post-drug, read-out: No. Mice Affected/No. Mice Tested, 6 h (converted)) of 0%, a responders at 132 µmol/kg (24 h post-drug, read-out: No. Mice Affected/No. Mice Tested, 24 h (converted)) of 33.3% and a responders at 132 µmol/kg (total, read-out: No. Mice Affected/No. Mice Tested, Total (converted)) of 100%. The “Molar Potency Ratio Claimed/Ref. Ester” value (claimed N-propyl ester vs corresponding N-methyl reference ester) was no less than 8.
`CCCN1CCc2cccc3c2C1Cc1ccc(O)c(O)c1-3` (centres unmarked) [N-propylnorapomorphine] was tested, and the ED50 (po, read-out: ED50, on oral administration, oral) was 3.2 µmol/kg.
`CCC(=O)Oc1ccc2c(c1OC(=O)CC)-c1cccc3c1C(C2)N(C)CC3` (centres unmarked) [Ref. 1, reference compound] gave a responders at 26 µmol/kg [1] of 0%, a responders at 52 µmol/kg [1] of 25% and a responders at 104 µmol/kg [1] of 41.7%. For the same molecule, the responders at 208 µmol/kg [1] was 100%, the responders at 26 µmol/kg [2] was 0% and the responders at 52 µmol/kg [2] was 25%. The responders at 104 µmol/kg [2] was 41.7%, the responders at 208 µmol/kg [2] was 100% and the responders at 26 µmol/kg [3] was 0%. The responders at 52 µmol/kg [3] was 0%, the responders at 104 µmol/kg [3] was 0% and the responders at 208 µmol/kg [3] was 100%. For the same molecule, the responders at 26 µmol/kg [4] was 0%, the responders at 52 µmol/kg [4] was 0% and the responders at 104 µmol/kg [4] was 0%. The responders at 208 µmol/kg [4] was 50%, the responders at 26 µmol/kg [5] was 0% and the responders at 52 µmol/kg [5] was 0%. The responders at 104 µmol/kg [5] was 0%, the responders at 208 µmol/kg [5] was 0% and the responders at 26 µmol/kg [6] was 0%. The responders at 208 µmol/kg [6] was 0%, the ED50 (ED50) was 98 µmol/kg and the responders at 26 µmol/kg [7] was 0%. The responders at 52 µmol/kg [7] was 25%, the responders at 104 µmol/kg [7] was 41.7% and the responders at 208 µmol/kg [7] was 100%.
For `CC(C)C(=O)Oc1ccc2c(c1OC(=O)C(C)C)-c1cccc3c1C(C2)N(C)CC3` (centres unmarked) [Ref. 1B, reference compound], the responders at 208 µmol/kg [1] was 0%, the responders at 208 µmol/kg [2] was 0% and the responders at 208 µmol/kg [4] was 25%. The responders at 208 µmol/kg [5] was 0%, the responders at 208 µmol/kg [6] was 0% and the responders at 208 µmol/kg [7] was 25%.
`CN1CCc2cccc3c2C1Cc1ccc(OC(=O)C(C)(C)C)c(OC(=O)C(C)(C)C)c1-3` (centres unmarked) [Ref. 1C, reference compound] showed a responders at 208 µmol/kg [8] of 0%, a responders at 416 µmol/kg [9] of 0% and a responders at 208 µmol/kg [10] of 0%. For the same molecule, the responders at 208 µmol/kg [11] was 0%, the responders at 208 µmol/kg [12] was 0% and the responders at 208 µmol/kg [13] was 0%. The responders at 208 µmol/kg [14] was 0%, the responders at 416 µmol/kg [15] was 33.3% and the responders at 416 µmol/kg [16] was 66.7%. For the same molecule, the responders at 416 µmol/kg [17] was 66.7%, the responders at 416 µmol/kg [18] was 0% and the responders at 416 µmol/kg [19] was 66.7%.
Molecule `CCCCCCCCCCCCCCCC(=O)Oc1ccc2c(c1OC(=O)CCCCCCCCCCCCCCC)-c1cccc3c1C(C2)N(C)CC3` (centres unmarked) [Ref. 1D, reference compound] has a responders at 208 µmol/kg [8] of 0%, a responders at 416 µmol/kg [9] of 0% and a responders at 208 µmol/kg [10] of 0%. It also gave a responders at 208 µmol/kg [11] of 0%, a responders at 208 µmol/kg [12] of 0% and a responders at 208 µmol/kg [13] of 0%. The responders at 208 µmol/kg [14] was 0%, the responders at 416 µmol/kg [15] was 0% and the responders at 416 µmol/kg [16] was 0%. For the same molecule, the responders at 416 µmol/kg [17] was 0%, the responders at 416 µmol/kg [18] was 0% and the responders at 416 µmol/kg [19] was 0%.
`CN1CCc2cccc3c2C1Cc1ccc(OC(=O)c2ccccc2)c(OC(=O)c2ccccc2)c1-3` (centres unmarked) [Ref. 1E, reference compound] gave a responders at 416 µmol/kg [9] of 0%, a responders at 416 µmol/kg [15] of 0% and a responders at 416 µmol/kg [16] of 0%. For the same molecule, the responders at 416 µmol/kg [17] was 0%, the responders at 416 µmol/kg [18] was 0% and the responders at 416 µmol/kg [19] was 0%.
`CN1CCc2cccc3c2C1Cc1ccc(OC(=O)c2ccc(Cl)cc2)c(OC(=O)c2ccc(Cl)cc2)c1-3` (centres unmarked) [Ref. 1F, reference compound] gave a responders at 416 µmol/kg [9] of 0%, a responders at 416 µmol/kg [15] of 0% and a responders at 416 µmol/kg [16] of 0%. For the same molecule, the responders at 416 µmol/kg [17] was 0%, the responders at 416 µmol/kg [18] was 0% and the responders at 416 µmol/kg [19] was 0%.
In the case of `CC(=O)Oc1ccc2c(c1OC(C)=O)-c1cccc3c1C(C2)N(C)CC3` (centres unmarked) [Ref. 2, reference compound], the responders at 208 µmol/kg [1] is reported as 0%, the responders at 416 µmol/kg [1] is reported as 25% and the responders at 208 µmol/kg [2] is reported as 0%. The responders at 416 µmol/kg [2] was 50%, the responders at 208 µmol/kg [4] was 0% and the responders at 416 µmol/kg [4] was 75%. The responders at 208 µmol/kg [5] was 0%, the responders at 416 µmol/kg [5] was 75% and the responders at 208 µmol/kg [6] was 25%. The responders at 416 µmol/kg [6] was 25%, the responders at 208 µmol/kg [7] was 25% and the responders at 416 µmol/kg [7] was 75%.
For `CCCCC(=O)Oc1ccc2c(c1OC(=O)CCCC)-c1cccc3c1C(C2)N(C)CC3` (centres unmarked) [Ref. 2A, reference compound], the responders at 208 µmol/kg [8] was 0%, the responders at 416 µmol/kg [9] was 33.3% and the responders at 208 µmol/kg [10] was 0%. The responders at 208 µmol/kg [11] was 0%, the responders at 208 µmol/kg [12] was 0% and the responders at 208 µmol/kg [13] was 0%. It also gave a responders at 208 µmol/kg [14] of 0%, a responders at 416 µmol/kg [15] of 0% and a responders at 416 µmol/kg [16] of 0%. The responders at 416 µmol/kg [17] was 0%, the responders at 416 µmol/kg [18] was 0% and the responders at 416 µmol/kg [19] was 33.3%.
